# Values quoted from earlier work, collected in US20220054371A1, “TOOTH CLEANING COMPOSITION, TOOTH CLEANING AGENT, DENTAL CALCULUS REMOVAL ACCELERATOR, AND TOOTH CLEANING METHOD” (TOKUYAMA DENTAL CORPORATION, priority 2018, published 2022).
# Details: 2.0 mg dental calculi in 1 ml of 10% aqueous solution, pH 3.1, 14 minutes
structure (smiles),measurement,value
CC(O)C(=O)O (stereo not shown) [lactic acid],weight reduction of dental calculi,1.0 mg
